{
  "source": "patent US20030050274A1",
  "about": "“Composition containing S-adenosylmethionine for treating or preventing insulin resistance syndrome” (priority 2001, published 2003)",
  "assay_type_in_all_cases": "in vivo, rat",
  "key": {"[1]": {"tested_on": "OLETF (Otsuka Long Evans Tokushima Fatty) rats", "assay": "Weight change of OLETF rats administered S-adenosylmethionine", "set-up": "Body Weight: dose or concentration left out as unconfirmed", "description": "(§1) 14 six-week-old OLETF (Otsuka Long Evans Tokushima Fatty) rats (Otsuka Research Lab., Tokushima, bred for use as a non-insulin-dependent diabetes mellitus model) were evenly divided into two injection groups. The rats of two groups were administered into the abdominal cavity either with S-adenosylmethionine (SAMe(+) group) or with a vehicle containing L-lysine (SAMe(−) group) at a daily dose of 15 mg/kg body weight for a duration of up to 19 weeks. 7 six-week-old LETO (Long Evans Tokushima Otsuka) rats (Otsuka Research Lab., Tokushima, normal rats) were used as a normal control group (Control group). The rats of each group were examined for their weight changes, and checked by way of conducting glucose load tests and euglycemic hyperinsulinemic clamp tests to measure the effect of S-adenosylmethionine on the insulin secretion and insulin sensitivity.\n(§2) Test data were analyzed to represent each test result in the form of mean±standard error mean. Differences in weight changes among the groups were analyzed by ANOVA with Least Significance Difference using SPSS/PC 10.0, and the differences in glucose load and clamp test results, by the Kruskall-Wallis test and checked using the Mann-Whitney probation method. The significance level was set at a p value of 0.05 or below.\n(1-1) Weight Change At 0, 1, 2, 4, 8, 13, 16 and 19 weeks after the administration had begun, the weight changes of the rats of the three groups were recorded."}, "[2]": {"tested_on": "OLETF (Otsuka Long Evans Tokushima Fatty) rats", "assay": "Glucose load test", "description": "as §1, §2\nOn the 19th week after the administration had begun, the rats were starved for 6 hours and a 35% glucose solution (0.5 g glucose/kg body weight) was bolus-infused into each rat through the tail artery. At 0, 2, 6, 8, 10, 15, 20 and 30 minites after the infusion, a 200 μl blood sample was taken from the tail artery of each rat, centrifuged and the plasma supernatant was separated. The blood glucose level was determined by employing YSI 2300.\nIn addition, the glucose loss rate ( % /min) was calculated from the inclination of log-converted values of glucose concentrations measured during 2 to 15 minutes after the infusion. The glucose loss rates of the SAM(+) and SAM(−) groups were similar at 3.69±0.29 and 3.23±0.32%/min, respectively, while that of the Control group was much higher at 5.13±0.29%/min."}, "[3]": {"tested_on": "OLETF (Otsuka Long Evans Tokushima Fatty) rats", "assay": "Euglycemic hyperinsulinemic clamp test", "description": "as §1, with “The rats of each group were examined for their weight changes, and checked by way of conducting glucose load tests and euglycemic hyperinsulinemic clamp tests to measure the effect of S-adenosylmethionine on the insulin secretion and insulin sensitivity.” left out\nTest data were analyzed to represent each test result in the form of mean±standard error mean. Differences in weight changes among the groups were analyzed by ANOVA with Least Significance Difference using SPSS/PC 10.0, and the differences in glucose load and clamp test results, by the Kruskall-Wallis test and checked using the Mann-Whitney probation method. […]\nBased on the fact that the amount of glucose infused to maintain the steady basal level is equal to the amount of glucose consumed in the body, insulin resistance of each group was determined from the mean glucose infusion rate (mg/kg/min) during the clamp test period. […]"}, "SD-based rats": {"tested_on": "SD-based rats", "assay": "Toxicity of orally administered S-adenosylmethionine", "description": "8 six-week-old, specific pathogen-free SD-based rats were evenly divided into four groups, which were orally administered with S-adenosylmethionine suspended in a 0.5% methylcellulose solution at a dose of 50, 100, 200 and 500 mg SAMe/kg body weight, respectively. […] Every 12 hours thereafter, the weight changes of the rats were recorded to examine the effect of S-adenosylmethionine. Further, on the 10th day, the rats were sacrificed and the internal organs were visually examined."}, "[4]": {"conditions": "measurement time period 0-30 min after the infusion"}},
  "data": [
    {"smiles": "C[S+](CC[C@H](N)C(=O)[O-])C[C@H]1O[C@@H](n2cnc3c(N)ncnc32)[C@H](O)[C@@H]1O", "note": "(stereo partly drawn) [S-adenosylmethionine]", "values": [
      {"measurement": "ratio of weight gain as compared with the SAM(−) group", "setting": "[1]; OLETF rats, 15 mg/kg/day into abdominal cavity, up to 19 weeks", "result": "significantly lower"},
      {"measurement": "Body Weight", "setting": "[1]; week 0", "result": 220, "unit": "g"},
      {"measurement": "Body Weight", "setting": "[1]; week 1", "result": 299, "unit": "g"},
      {"measurement": "Body Weight", "setting": "[1]; week 2", "result": 343, "unit": "g"},
      {"measurement": "Body Weight", "setting": "[1]; week 4", "result": 403, "unit": "g"},
      {"measurement": "Body Weight", "setting": "[1]; week 8", "result": 464, "unit": "g"},
      {"measurement": "Body Weight", "setting": "[1]; week 13", "result": 498, "unit": "g"},
      {"measurement": "Body Weight", "setting": "[1]; week 16", "result": 528, "unit": "g"},
      {"measurement": "Body Weight", "setting": "[1]; week 19", "result": 565, "unit": "g"},
      {"measurement": "blood glucose levels measured at 6 and 8 minutes after the infusion as compared with the SAM(−) group", "setting": "[2]; OLETF rats, 19th week of 15 mg/kg/day", "result": "significantly lower"},
      {"measurement": "Blood Glucose Level", "setting": "[2]; OLETF rats, 19th week of 15 mg/kg/day, 0 min after 0.5 g/kg glucose infusion", "result": 118, "unit": "mg/dL"},
      {"measurement": "Blood Glucose Level", "setting": "[2]; OLETF rats, 19th week of 15 mg/kg/day, 2 min after 0.5 g/kg glucose infusion", "result": 368, "unit": "mg/dL"},
      {"measurement": "Blood Glucose Level", "setting": "[2]; OLETF rats, 19th week of 15 mg/kg/day, 6 min after 0.5 g/kg glucose infusion", "result": 291, "unit": "mg/dL"},
      {"measurement": "Blood Glucose Level", "setting": "[2]; OLETF rats, 19th week of 15 mg/kg/day, 8 min after 0.5 g/kg glucose infusion", "result": 265, "unit": "mg/dL"},
      {"measurement": "Blood Glucose Level", "setting": "[2]; OLETF rats, 19th week of 15 mg/kg/day, 10 min after 0.5 g/kg glucose infusion", "result": 257, "unit": "mg/dL"},
      {"measurement": "Blood Glucose Level", "setting": "[2]; OLETF rats, 19th week of 15 mg/kg/day, 15 min after 0.5 g/kg glucose infusion", "result": 224, "unit": "mg/dL"},
      {"measurement": "Blood Glucose Level", "setting": "[2]; OLETF rats, 19th week of 15 mg/kg/day, 20 min after 0.5 g/kg glucose infusion", "result": 204, "unit": "mg/dL"},
      {"measurement": "Blood Glucose Level", "setting": "[2]; OLETF rats, 19th week of 15 mg/kg/day, 30 min after 0.5 g/kg glucose infusion", "result": 172, "unit": "mg/dL"},
      {"measurement": "glucose loss rate", "setting": "[2]; from inclination of log-converted glucose concentrations, 2 to 15 minutes after the infusion", "result": "3.69±0.29", "unit": "%/min"},
      {"measurement": "area obtained by integrating the blood glucose level curve", "setting": "[2]; [4]", "result": "234±9.6 (mg/dl).min"},
      {"measurement": "area under blood glucose level curve, difference among SAM(+), SAM(−) and Control groups", "setting": "[2]; [4]", "result": "no significant differences"},
      {"measurement": "mean glucose infusion rate", "setting": "[3]; 19th week of 15 mg/kg/day, insulin 12 mU/kg/min, clamp period 60 to 120 min", "result": "16.7 ± 1.70", "unit": "mg/kg/min"},
      {"measurement": "insulin resistance", "setting": "[3]; conclusion from clamp test", "result": "effectively lowers the insulin resistance"},
      {"measurement": "toxicity", "setting": "SD-based rats; rat, oral, dose of 500 mg/kg, observed 10 days", "result": "no toxicity"},
      {"measurement": "autopsy: pathological abnormality of internal organs", "setting": "SD-based rats; rats, oral 50-500 mg/kg, 10th day", "result": "did not develop any pathological abnormality"},
      {"measurement": "weight loss", "setting": "SD-based rats; rats, oral 50-500 mg/kg, 10 day test period", "result": "no weight loss"},
      {"measurement": "survival at day 10", "setting": "SD-based rats; rats, oral single dose 50, 100, 200 and 500 mg/kg", "result": "All the rats were alive"}
    ]}
  ]
}
